Legend:
Format in all cases: in vivo
Triticum aestivum = assay: Test Example 4: effect on crop by application to foliage (diluvial soil, plastic box); conditions: for e (Triticum aestivum) effect on crop: application herbicide amount 320 g/ha; for e: Application herbicide amount 320 g/ha, effect on crop
Method in brief: (§1)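 Plants were grown in sterilized diluvial soil in a greenhouse at 25-30° C for 14 days, then sprayed on stems and leaves with water-diluted emulsion formulation at set rates in g/ha. Weed control and crop injury were scored 3 weeks after treatment on a 0-5 herbicidal-ratio scale, from 0 (≤5%) to 5 (≥90%).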

Zea mays = assay: as above; conditions: for b (Zea mays) effect on crop: application to foliage, application herbicide amount 320 g/ha; for b: Application herbicide amount 320 g/ha, effect on crop
Method in brief: as §1

Glycine max = assay: as above; conditions: for c (Glycine max) effect on crop: application herbicide amount 320 g/ha; for c: Application herbicide amount 320 g/ha, effect on crop
Method in brief: as §1

[1] = system: Beta vulgaris ssp. vulgaris; assay: as above; conditions: for f (Beta vulgaris ssp. vulgaris) effect on crop: application herbicide amount 320 g/ha; for f: Application herbicide amount 320 g/ha, effect on crop
Method in brief: as §1

Brassica campestris L. = assay: as above; conditions: for g (Brassica campestris L.) effect on crop: application herbicide amount 320 g/ha; for g: Application herbicide amount 320 g/ha, effect on crop
Method in brief: as §1

[2] = system: directly sowed Oryza sativa; assay: as above; conditions: for d (directly sowed Oryza sativa) effect on crop: application herbicide amount 320 g/ha; for d: Application herbicide amount 320 g/ha, effect on crop
Method in brief: as §1

Monochoria vaginalis = assay: Test Example 2: herbicidal activity, application during weed generation in submerged conditions; conditions: Eighteenth Table
Text: (§2) 5 Herbicidal ratio of 90% or more (almost completely withered) 4 Herbicidal ratio of 70% or more and less than 90% 3 Herbicidal ratio of 40% or more and less than 70% 2 Herbicidal ratio of 20% or more and less than 40% 1 Herbicidal ratio of 5% or more and less than 20% 0 Herbicidal ratio of 5% or less (almost no effect) [Test Example 2] Herbicidal Activity Test by Application During Weed Generation in Submerged Conditions After alluvial soil was placed into 1/10000 are of Wagner pot, water was poured and mixed to form a submerged condition having a water depth of 4 cm. Seeds of Echinochloa oryzacola Vasing., Scirpus juncoides, and Monochoria vaginalis were sowed in a mixed manner in the above pot and the pot was placed in the greenhouse of 25° C. to 30° C. to grow the plants. When Echinochloa oryzacola Vasing., Scirpus juncoides, and Monochoria vaginalis were grown to one leaf stage to two leaf stage, the emulsion agent containing the compound of the present invention prepared in accordance with Formulation Example 2 was diluted with water so as to be a predetermined herbicide amount and the diluted compound was applied to the surface of the water. Three weeks after the herbicide application, effects on each plant were investigated in accordance with the criteria of Test Example 1. A: Echinochloa oryzicola Vasing., B: Scirpus juncoides, C: Monochoria vaginalis, D: Leptochloa chinensis, E: Cyperus difformis, F: Digitaria ciliaris, G: Setaria viridis, H: Echinochloa crus-galli var. crus-galli, I: Avena fatua, J: Alopecurus myosuroides, K: Lolium multiflorum Lam., L: Apera spica-venti., M: Abutilon theophrasti, N: Amaranthus retroflexus, O: Chenopodium album, P: Stellaria media, Q: Galium spurium, R: Veronica persica, a: transplanted Oryza sativa, b: directly sowed Oryza sativa, c: Zea mays, d: Glycine max, e: Triticum aestivum, f: Beta vulgaris ssp. vulgaris, and g: Brassica campestris L. The application herbicide amount (g/ha) means an amount that a concentration is adjusted so that, when an application amount is converted into per hectare (1 ha), the herbicide is applied by the number of grams (g) of the described value.

[3] = system: Echinochloa oryzacola Vasing.; assay: as above; conditions: Eighteenth Table
Text: as §2

Scirpus juncoides = assay: as above; conditions: Eighteenth Table
Text: as §2

[4] = application herbicide amount 320 g/ha
[5] = application to foliage, 141 g/ha
[6] = application herbicide amount 141 g/ha

Structure (SMILES) | C (Monochoria vaginalis) herbicidal ratio grade (Monochoria vaginalis; [4]) | A (Echinochloa oryzicola Vasing.) herbicidal ratio grade [3, 4] | B (Scirpus juncoides) herbicidal ratio grade (Scirpus juncoides; [4]) | e (Triticum aestivum) | b (Zea mays) | c (Glycine max) | f [1] | g (Brassica campestris L.) | d [2] | also measured
Cc1nnc(NC(=O)c2ccc(C(F)(F)F)n3cnnc23)o1 [1-001] | 2 (Herbicidal ratio of 20% or more and less than 40%) | 4 (Herbicidal ratio of 70% or more and less than 90%) | 4 (Herbicidal ratio of 70% or more and less than 90%) |  |  |  |  |  |  | e (Triticum aestivum) effect on crop (Triticum aestivum; application to foliage): 1 (Herbicidal ratio of 5% or more and less than 20%); b (Zea mays) effect on crop (Zea mays): 0 (Herbicidal ratio of 5% or less (almost no effect)); c (Glycine max) effect on crop (Glycine max; application to foliage): 0 (Herbicidal ratio of 5% or less (almost no effect)); f (Beta vulgaris ssp. vulgaris) effect on crop ([1]; application to foliage): 4 (Herbicidal ratio of 70% or more and less than 90%); g (Brassica campestris L.) effect on crop (Brassica campestris L.; application to foliage): 4 (Herbicidal ratio of 70% or more and less than 90%); d (directly sowed Oryza sativa) effect on crop ([2]; application to foliage): 3 (Herbicidal ratio of 40% or more and less than 70%)
CCc1nnc(NC(=O)c2ccc(C(F)(F)F)n3c(C(C)C)nnc23)o1 [1-005] | 0 (Herbicidal ratio of 5% or less (almost no effect)) | 5 (Herbicidal ratio of 90% or more (almost completely withered)) | 1 (Herbicidal ratio of 5% or more and less than 20%) |  |  |  |  |  |  | e (Triticum aestivum) effect on crop (Triticum aestivum; application to foliage): 0 (Herbicidal ratio of 5% or less (almost no effect)); b (Zea mays) effect on crop (Zea mays): 0 (Herbicidal ratio of 5% or less (almost no effect)); c (Glycine max) effect on crop (Glycine max; application to foliage): 1 (Herbicidal ratio of 5% or more and less than 20%); f (Beta vulgaris ssp. vulgaris) effect on crop ([1]; application to foliage): 0 (Herbicidal ratio of 5% or less (almost no effect)); g (Brassica campestris L.) effect on crop (Brassica campestris L.; application to foliage): 0 (Herbicidal ratio of 5% or less (almost no effect)); d (directly sowed Oryza sativa) effect on crop ([2]; application to foliage): 0 (Herbicidal ratio of 5% or less (almost no effect))
Cc1nnc(NC(=O)c2ccc(C(F)(F)F)n3c(-c4ccc(Cl)nc4)nnc23)o1 [1-054] | 3 (Herbicidal ratio of 40% or more and less than 70%) | 4 (Herbicidal ratio of 70% or more and less than 90%) | 3 (Herbicidal ratio of 40% or more and less than 70%) | 3 (Herbicidal ratio of 40% or more and less than 70%) | 0 (Herbicidal ratio of 5% or less (almost no effect)) | 1 (Herbicidal ratio of 5% or more and less than 20%) | 4 (Herbicidal ratio of 70% or more and less than 90%) | 4 (Herbicidal ratio of 70% or more and less than 90%) | 3 (Herbicidal ratio of 40% or more and less than 70%) | 
Cc1nnc(NC(=O)c2ccc(C(F)(F)F)n3c(NC(C)C)nnc23)o1 [1-090] | 3 (Herbicidal ratio of 40% or more and less than 70%) | 2 (Herbicidal ratio of 20% or more and less than 40%) | 1 (Herbicidal ratio of 5% or more and less than 20%) | 0 (Herbicidal ratio of 5% or less (almost no effect)) | 0 (Herbicidal ratio of 5% or less (almost no effect)) | 1 (Herbicidal ratio of 5% or more and less than 20%) | 5 (Herbicidal ratio of 90% or more (almost completely withered)) | 4 (Herbicidal ratio of 70% or more and less than 90%) | 4 (Herbicidal ratio of 70% or more and less than 90%) | 
C#CCSc1nnc2c(C(=O)Nc3nnc(C)o3)ccc(C(F)(F)F)n12 [1-065] | 2 (Herbicidal ratio of 20% or more and less than 40%) | 1 (Herbicidal ratio of 5% or more and less than 20%) | 2 (Herbicidal ratio of 20% or more and less than 40%) | 0 (Herbicidal ratio of 5% or less (almost no effect)) | 0 (Herbicidal ratio of 5% or less (almost no effect)) | 0 (Herbicidal ratio of 5% or less (almost no effect)) | 4 (Herbicidal ratio of 70% or more and less than 90%) | 2 (Herbicidal ratio of 20% or more and less than 40%) | 3 (Herbicidal ratio of 40% or more and less than 70%) | 
C=CC[S+]([O-])c1nnc2c(C(=O)Nc3nnc(C)o3)ccc(C(F)(F)F)n12 (centres unmarked) [1-074] | 0 (Herbicidal ratio of 5% or less (almost no effect)) | 2 (Herbicidal ratio of 20% or more and less than 40%) | 0 (Herbicidal ratio of 5% or less (almost no effect)) | 0 (Herbicidal ratio of 5% or less (almost no effect)) | 0 (Herbicidal ratio of 5% or less (almost no effect)) | 0 (Herbicidal ratio of 5% or less (almost no effect)) | 4 (Herbicidal ratio of 70% or more and less than 90%) | 3 (Herbicidal ratio of 40% or more and less than 70%) | 3 (Herbicidal ratio of 40% or more and less than 70%) | 
COc1cc(OC)cc(-c2nnc3c(C(=O)Nc4nnc(C)o4)ccc(C(F)(F)F)n23)c1 [1-070] | 5 (Herbicidal ratio of 90% or more (almost completely withered)) | 5 (Herbicidal ratio of 90% or more (almost completely withered)) | 5 (Herbicidal ratio of 90% or more (almost completely withered)) | 0 (Herbicidal ratio of 5% or less (almost no effect)) | 0 (Herbicidal ratio of 5% or less (almost no effect)) | 0 (Herbicidal ratio of 5% or less (almost no effect)) | 4 (Herbicidal ratio of 70% or more and less than 90%) | 3 (Herbicidal ratio of 40% or more and less than 70%) | 4 (Herbicidal ratio of 70% or more and less than 90%) | 
CCN(C)c1nnc2c(C(=O)Nc3nnnn3C)ccc(C(F)(F)F)n12 [2-088] |  |  |  |  |  |  |  |  |  | effect on crop, e (Triticum aestivum) (Triticum aestivum; [5]): 0 (Herbicidal ratio of 5% or less (almost no effect)); effect on crop, c (Glycine max) (Glycine max; [5]): 0 (Herbicidal ratio of 5% or less (almost no effect)); effect on crop, f (Beta vulgaris ssp. vulgaris) [1, 5]: 5 (Herbicidal ratio of 90% or more (almost completely withered)); effect on crop, g (Brassica campestris L.) (Brassica campestris L.; [5]): 5 (Herbicidal ratio of 90% or more (almost completely withered)); effect on crop, d (directly sowed Oryza sativa) [2, 5]: 4 (Herbicidal ratio of 70% or more and less than 90%); C (Monochoria vaginalis) herbicidal ratio grade (Monochoria vaginalis; [6]): 4 (Herbicidal ratio of 70% or more and less than 90%); A (Echinochloa oryzicola Vasing.) herbicidal ratio grade [3, 6]: 4 (Herbicidal ratio of 70% or more and less than 90%); B (Scirpus juncoides) herbicidal ratio grade (Scirpus juncoides; [6]): 3 (Herbicidal ratio of 40% or more and less than 70%)

Reference: patent US9708314B2, “Heterocyclic amide compound” (NISSAN CHEMICAL INDUSTRIES, LTD., priority 2013, dated 2017)
